Blank lines part the entries; values can stand above or below the molecule they belong to. *1 amine or outer side, *2 acyl side, *3 side chain or, on linkers, in order; H or OH if unused. Where a SMILES comes first, the peptide text is derived from it. Bridges are numbered along the chain shown (N, C = ends). [ ]: non-standard residue; d: D form. The star is where a group is joined. NODAGA = O=C(O)CN1CCN(CC(=O)O)CCN(C(CCC(=O)*)C(=O)O)CC1; Tyr(3-Cl) = N[C@@H](Cc1ccc(O)c(Cl)c1)C(=O)O; Nicotinoyl(6-F) = O=C(c1ccc(F)nc1)*; X1 = O=C([C@@H]1CC(O)CN1[*:1])[*:2]; Hyp = O=C(O)[C@@H]1C[C@@H](O)CN1
What was measured:
[1] = biological target: T1, soluble fibrin fragment DD(E) (Homo sapiens, UniProt P02671+P02675+P02679, DEL433-453); experiment: Fluorescence polarization DD(E) binding/displacement assay; conditions: for Ki: displacement of TRITC-labelled peptide from DD(E), TBS·Ca with 2% DMSO, estimated uncertainty ±10%, read-out: Ki; for Kd: sub-micromolar affinity, read-out: affinity (Kd) to fibrin as assessed by DD(E) assay
T1 construct: partial plasmin digestion of purified fibrin gel followed by size-exclusion chromatographic purification; made in house
Method: DD(E) was prepared using a published procedure which involved partial plasmin digestion of purified fibrin gel followed by size-exclusion chromatographic purification, and purity was assessed by SDS-PAGE. Peptides modified at the N-terminus with tetramethyl-rhodamine (TRITC) dye bind to DD(E). Direct fluorescent peptide binding to DD(E) was measured by a fluorescence polarization (FP) assay. The anisotropy (robs) of the fluorescently labeled peptides binding to DD(E) (0-20 μM) was measured in Tris buffered saline (50 mM Tris, 100 mM NaCl and 2 mM CaCl2) at fixed compound concentrations, and the data were fit to a single site model (Eq. 1) to obtain the dissociation constant (Kd) for the DD(E)·(fluorescent peptide) complex.
Displacement of the fluorescent peptide by non-fluorescent compound was measured to determine inhibition constants (Ki). In the presence of an inhibitor, an apparent dissociation constant for the fluorescent compound (Kd app) is determined using Eq. 2. The inhibition constant Ki is related to Kd app by Eq. 2, wherein Kd is the true dissociation constant of the fluorescent compound measured in the absence of inhibitor.
Non-labeled peptide binding to DD(E) was measured by a compound displacement assay, where a DD(E)/Fl·pep complex formed at fixed concentrations of DD(E) and Fl·pep was titrated with increasing concentrations of unlabeled compound. The compound was assayed by mixing DD(E) (4.0 μM, 10 μL) and TRITC (0.1 μM, 10 μL) with increasing concentrations of competing peptide (0.4-100 μM, 20 μL) in TBS·Ca with 2% DMSO in a final volume of 40 μL. Fluorescence polarization of the samples (10 μL, triplicate wells) in ascending concentrations was measured in a 384-well microplate (Corning flat black plate), using a Tecan Infinite 200 Pro fluorescence microplate reader equipped with fluorescence polarization filters, a 535 nm excitation filter and a 590 nm fluorescence emission filter. Average polarization (mP units) readings for each dilution of the compound of interest was converted to anisotropy (r) using Eq. 3.
The data defined a displacement curve (robs vs. [Peptide]), and the inhibitory binding constant, Ki, was determined by least squares fitting of the data (estimated uncertainty in Ki±10%). See Table 2 for the Ki values for the Compounds from Example 1.

[2] = Stability in rat plasma at 37° C. up to 4 h; type: in vitro ADME; conditions: after 4 h
Method: The six compounds identified in Example 3 (Compounds 2, 3, 4, 5, 6, and 7) were assayed for stability in rat plasma at 37° C. for up to 4 h. Compounds were dissolved in DMSO to a make a stock solution (0.6 mM). Plasma (995 μL) was spiked with peptide stock solution (5 μL). Incubations were carried at a test compound concentration of 3 μM with a final DMSO concentration of […]. The spiked plasma samples were incubated at 37° C. for 4 h. Aliquots (300 μL) were removed at 0, 0.5, 1, 2 and 4 h and reactions were terminated by adding 600 μL of cold acetonitrile with 0.1% formic acid containing carbutamide (25 μg/mL) as an internal standard. Simultaneously, a plasma sample (995 μL) containing a mixture of benfluorex, propranolol and nortriptyline (40 μM in DMSO) control compounds was also incubated alongside each batch of test compounds and terminated similarly. […] Following centrifugation, the concentration of the compound of interest in the supernatant was quantified by LCMS. […] The peak area for each detected compound was measured to determine the % remaining of each compound and the result was compared with standards of pure compound and compound immediately isolated from plasma (t=0 sample). All assay samples were analyzed in triplicate. […]

[3] = Blood analysis in rat model of carotid artery crush injury (blood clearance); type: in vivo; conditions: relative to the other compounds compared
Method: Rat carotid endothelial injury model in vivo studies were conducted, wherein the common carotid artery is isolated and crushed briefly with a hemostat, resulting in mural thrombus formation at the site of the crush. The vessel wall fibrin is then imaged with our PET compounds. All six compounds were evaluated in this model.
Adult male Wistar rats were anesthetized by isoflurane (1-2% in medical air). Body temperature was maintained at 37° C. using a thermo-regulated heating pad. The right femoral vein and artery were cannulated for compound injection and blood sampling, respectively. Endothelial injury was induced by crush injury to the right common carotid artery (1-2 cm proximal to the carotid bifurcation) by clamping the vessel with a hemostat for 5 minutes. Immediately following the surgical procedures, rats were placed in a micro-PET/CT scanner. Compound (200-600 μL) was injected, PET-CT images were acquired, and blood samples were drawn from the femoral artery prior to compound injection and at 2, 5, 10, 15, 30, 60, 90, 120 min post injection. Tissues were harvested at the end for ex vivo analyses.
Blood samples were drawn from prior to probe injection and at 2, 5, 10, 15, 30, 60, 90, 120 min post injection. Each blood sample was weighed and counted using a gamma-counter. The activity in each sample was calculated as percent injected dose (% ID) per gram of tissue.

human fibrin [4] = biological target: T2, human fibrin (human, UniProt P02671 36-629; P02675 45-491; P02679 27-437, limits assumed); experiment: radioactivity plate assay on immobilized human fibrin, in TBS buffer
T2 construct: also called clotted fibrin; immobilized fibrin
T2 sequence (looked up) 1: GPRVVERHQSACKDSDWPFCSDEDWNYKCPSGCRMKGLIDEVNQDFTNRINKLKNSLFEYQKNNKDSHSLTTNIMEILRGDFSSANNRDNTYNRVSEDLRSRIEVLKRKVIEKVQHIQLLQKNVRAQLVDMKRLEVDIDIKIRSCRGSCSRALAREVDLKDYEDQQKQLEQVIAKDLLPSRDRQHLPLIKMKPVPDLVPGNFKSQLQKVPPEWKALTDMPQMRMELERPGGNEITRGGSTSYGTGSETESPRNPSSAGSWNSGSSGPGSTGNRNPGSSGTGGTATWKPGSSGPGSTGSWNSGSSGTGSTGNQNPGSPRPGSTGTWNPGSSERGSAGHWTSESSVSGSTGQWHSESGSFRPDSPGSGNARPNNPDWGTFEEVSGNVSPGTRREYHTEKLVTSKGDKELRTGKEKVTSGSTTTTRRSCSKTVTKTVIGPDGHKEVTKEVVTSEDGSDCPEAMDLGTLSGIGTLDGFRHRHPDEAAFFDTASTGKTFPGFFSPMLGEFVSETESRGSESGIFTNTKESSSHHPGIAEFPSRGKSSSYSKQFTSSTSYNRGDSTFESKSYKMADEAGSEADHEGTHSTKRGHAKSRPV
T2 sequence (looked up) 2: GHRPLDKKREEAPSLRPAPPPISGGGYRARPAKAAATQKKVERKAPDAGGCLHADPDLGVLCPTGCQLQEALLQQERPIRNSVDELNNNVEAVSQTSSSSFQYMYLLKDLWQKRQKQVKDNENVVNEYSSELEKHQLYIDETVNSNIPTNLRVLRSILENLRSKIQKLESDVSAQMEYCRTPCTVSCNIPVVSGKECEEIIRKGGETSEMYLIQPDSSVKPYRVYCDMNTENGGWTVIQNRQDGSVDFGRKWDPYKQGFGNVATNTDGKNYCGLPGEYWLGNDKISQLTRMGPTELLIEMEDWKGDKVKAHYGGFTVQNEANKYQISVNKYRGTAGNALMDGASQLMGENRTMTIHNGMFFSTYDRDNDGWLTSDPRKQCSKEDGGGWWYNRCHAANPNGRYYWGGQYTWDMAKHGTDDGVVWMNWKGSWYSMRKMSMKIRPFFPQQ
T2 sequence (looked up) 3: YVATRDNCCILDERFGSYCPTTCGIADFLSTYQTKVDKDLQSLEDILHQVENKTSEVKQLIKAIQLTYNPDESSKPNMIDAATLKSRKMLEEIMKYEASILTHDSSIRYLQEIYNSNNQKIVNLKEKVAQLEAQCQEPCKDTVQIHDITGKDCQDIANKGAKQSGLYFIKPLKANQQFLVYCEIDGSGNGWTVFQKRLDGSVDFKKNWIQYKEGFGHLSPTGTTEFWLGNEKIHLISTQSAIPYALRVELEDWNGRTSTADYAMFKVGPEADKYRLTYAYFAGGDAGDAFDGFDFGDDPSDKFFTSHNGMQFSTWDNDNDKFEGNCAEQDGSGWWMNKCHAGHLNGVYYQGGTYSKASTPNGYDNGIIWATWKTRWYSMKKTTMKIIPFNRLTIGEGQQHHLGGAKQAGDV
Method: Human fibrinogen (1 g) was dissolved in 30 mL of TBS buffer (50 mM Tris, 150 mM NaCl, 5 mM sodium citrate, pH 7.4) and dialyzed in a Slyde-a-Lyzer (20 000 MWCO, Cassette G2) at room temperature. After two changes of buffer, the fibrinogen was centrifuged (10 min, 2000×g) to remove undissolved material. Fibrinogen concentration was determined by measuring the absorbance at 280 nm. Stock fibrinogen solution concentration was 32.1 mg/mL. Fibrin plates with alternating rows of clotted fibrin and empty wells were prepared by polymerizing fibrinogen (100 μL; 2.5 mg/mL) with thrombin (1 U/mL) in TBS·citrate supplemented with 7 mM CaCl₂ in the wells of a 96 well polystyrene microtiter plate (Immulon-II®). […] Clottable protein in individual fibrinogen batches was determined by measuring 280 nm absorbance of the soluble fraction of the solution before and after thrombin treatment, and was generally ≥96% (Fibrin concentration, 7.56 μM).
An aliquot (100 μL) from a known activity (52 μCi in 10 mL TBS buffer) of Compound ¹⁸F-7 was added to a series of 12 known concentrations (0.01-50 μM) of cold Compound 7 (550 μL) in TBS buffer and mixed well to prepare 12 stock solutions. […] All aliquots from supernatants as well as an aliquot (90 μL) from each stock solution were weighed and activity of each was measured using a Cobra 5002 gamma counter. […]

human fibrin [5] = biological target: T2, human fibrin; experiment: radioactivity plate assay on immobilized human fibrin, in human plasma

Ki [1]: 580 nM | Kd [1]: < 600 nM | stability in rat plasma [2]: greatest stability
Molecule: CC[C@H](C)[C@H](NC(=O)[C@H](Cc1ccc(O)cc1)NC(=O)[C@@H]1CSSC[C@H](NC(=O)[C@@H](CCC(=O)O)NC(=O)[C@H](Cc2ccc(O)cc2)NC(=O)c2ccc(F)nc2)C(=O)N2C[C@H](O)C[C@H]2C(=O)N[C@@H](Cc2ccc(O)c(Cl)c2)C(=O)NCC(=O)N[C@@H](CC(C)C)C(=O)N1)C(=O)N[C@@H](CCC(N)=O)C(N)=O [Compound 7, -Y-e-C-Hyp-Y(3-Cl)-G-L-C-Y-I-Q-] ({Nicotinoyl(6-F)}-Y[dE]C[Hyp][Tyr(3-Cl)]GLCYIQ-NH2; disulfide 3-8)

Molecule: CC[C@H](C)[C@H](NC(=O)[C@H](Cc1cnc[nH]1)NC(=O)[C@@H]1CSSC[C@H](NC(=O)[C@@H](CCC(=O)O)NC(=O)[C@@H](Cc2ccc(O)cc2)NC(=O)CCC(C(=O)O)N2CCN(CC(=O)O)CCN(CC(=O)O)CC2)C(=O)N2CC(O)C[C@H]2C(=O)N[C@@H](Cc2ccc(O)c(Cl)c2)C(=O)NCC(=O)N[C@@H](CC(C)C)C(=O)N1)C(=O)N[C@@H](CCC(N)=O)C(N)=O (stereo partly shown) [Compound ^68Ga-19, metal not drawn] ({NODAGA}-[dY][dE]C[X1][Tyr(3-Cl)]GLCHIQ-NH2; disulfide 3-8)
blood clearance ([3]; rat carotid artery crush injury, 2-120 min post injection): faster blood clearance | metabolic stability ([3]; rat): better metabolic stability

Ki [1]: 340 nM | Kd [1]: < 600 nM | stability in rat plasma [2]: greatest stability
Molecule: CC[C@H](C)[C@H](NC(=O)[C@H](Cc1ccc(O)cc1)NC(=O)[C@@H]1CSSC[C@H](NC(=O)[C@@H](CCC(=O)O)NC(=O)[C@@H](Cc2ccc(O)cc2)NC(=O)c2ccc(F)nc2)C(=O)N2C[C@H](O)C[C@H]2C(=O)N[C@@H](Cc2ccc(O)c(Cl)c2)C(=O)NCC(=O)N[C@@H](CC(C)C)C(=O)N1)C(=O)N[C@@H](CCC(N)=O)C(N)=O [Compound 6, -y-e-C-Hyp-Y(3-Cl)-G-L-C-Y-I-Q-] ({Nicotinoyl(6-F)}-[dY][dE]C[Hyp][Tyr(3-Cl)]GLCYIQ-NH2; disulfide 3-8)

Kd (human fibrin [4]): 1600 nM | Kd (human fibrin [5]): 1800 nM
B1: Compound 18F-7 (peptide)
peptide: {6‑(18F)fluoronicotinoyl}-Y[dE]C[Hyp][Tyr(3-Cl)]GLCYIQ-NH2
modifications: disulfide 3-8
notes: In the plate assay the tracer was mixed with 0.01-50 µM cold Compound 7; also called the fluorine-18 form of Compound 7
